The values that follow come from patent publication US20230037103A1, “USE OF A COMPOUND OF 4-(3-ETHOXY-4-HYDROXYPHENYL) ALKYL KETONE TYPE AGAINST BACTERIA OF THE BURKHOLDERIA CEPACIA COMPLEX” (L’OREAL, priority 2019, published 2023).

Test [1] relates to bacteria of the Burkholderia cepacia complex. Description: Sensitivity test (MIC/MBC by agar dilution and broth dilution) on a Burkholderia strain panel. Format: cell-based. As to the method: The minimum inhibitory concentration (MIC) and the minimum bactericidal concentration (MBC) of compounds of formula (I) of the invention, in particular EZ, were determined by standardized agar dilution and broth dilution tests, described by Rushton et al. Key role for efflux in the preservative susceptibility and adaptive resistance of Burkholderia cepacia complex bacteria. Antimicrobial Agents and Chemotherapy, 2013. 57(7): p. 2972-2980 using TSA/TSB. The culture was carried out at 30° C. in order to be representative of the production and storage of industrial products. Preserving stock solutions (50% w/v) were prepared in DMSO (Sigma-Aldrich, United Kingdom) and volumes were added to the medium so as to achieve the test concentration. The final concentration of DMSO in the presence of the bacterium was verified to be non-toxic (not exceeding 4% v/v) and was included as control condition in the tests in order to eliminate the effect on growth. […] The efficacy and toxicity of the neutralizing solution were evaluated before the experiment, as described in the scientific publication by Lear, J. C., et al. (J. C., et al., Chloroxylenol- and triclosan-tolerant bacteria from industrial sources—Susceptibility to antibiotics and other biocides. International Biodeterioration and Biodegradation, 2006. 57(1): p. 51-56). […]
(In general: In agar dilution the substance is mixed into plates at graded concentrations.)

Test [2] has the same test system. Description: Reduction in viability of Bcc bacteria (preservative activity). Format: cell-based. As to conditions: in 4 hours.
Test [3] has as its system bacteria of the Bcc complex. Conditions: levels used in industry; cited from earlier work.

On to `CCOc1cc(CCC(C)=O)ccc1O` [EZ, 4-(3-ethoxy-4-hydroxyphenyl)butan-2-one], for which, in test [1], the “inhibitory activity with respect to bacteria of the Burkholderia cepacia complex” value is “very significant inhibitory activity”. Further, in test [1] (strains representing species commonly encountered as contaminants, culture at 30° C.), the “efficacy against a diversified panel of 57 Burkholderia strains” value is recorded as “excellent efficacy”. Besides, the reduction in viability in test [2] is given as 6 log.

Take `O=C([O-])c1ccccc1.[Na+]` [sodium benzoate]: the “efficacy with respect to contamination by bacteria of the Bcc complex” value in test [3] is on record as “ineffective”.
